According to US6166033A, “2-carbonylthiazole derivatives and use of the same” (priority 1996, dated 2000):
Where a name gives a salt, the structure may show the parent alone.

Tests used:
[1] = system: dopamine D4 receptor; settings: literature; cited from earlier work
[2] = system: schizophrenia; settings: clinical, literature, cited from earlier work
[3] = literature; cited from earlier work
[4] = molecular target: T1, human D4.2 receptor (Homo sapiens, UniProt P21917, DEL265-296); experiment: Dopamine D4 receptor binding test ([3H] spiperone); settings: human D4.2 receptor in CHO cell membrane; [3H] spiperone 0.5 nM; 2 hours at 27° C., pH 7.4
T1 construct: expressed in transfected cells; host or cells: Chinese hamster ovary (CHO) cells, membranes
T1 sequence (P21917 with tags, fused parts or gaps DEL265-296): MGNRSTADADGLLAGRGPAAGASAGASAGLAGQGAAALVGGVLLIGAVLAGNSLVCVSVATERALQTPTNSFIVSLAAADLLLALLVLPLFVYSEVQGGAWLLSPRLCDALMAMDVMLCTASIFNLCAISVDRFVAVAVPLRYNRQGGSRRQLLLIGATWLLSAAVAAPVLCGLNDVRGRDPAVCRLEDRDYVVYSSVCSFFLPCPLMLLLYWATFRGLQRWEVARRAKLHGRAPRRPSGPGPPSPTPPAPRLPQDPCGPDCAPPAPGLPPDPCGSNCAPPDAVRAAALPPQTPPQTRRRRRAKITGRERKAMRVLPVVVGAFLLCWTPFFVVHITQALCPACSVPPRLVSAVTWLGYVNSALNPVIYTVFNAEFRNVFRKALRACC
Experimental: 1. Dopamine D4 receptor binding test
Chinese hamster ovary (CHO) cell membrane, in which human D4.2 receptor was expressed, was used as a receptor sample.
[^3 H] Spiperone was used as a [^3 H]-labeled ligand.
The binding reaction using the [^3 H]-labeled ligand was carried out by the following method described in Eur. J. Pharmacol., 233, 173 (1993).
Human D4.2 receptor binding test: The CHO cell membrane, in which human D4.2 receptor has been expressed, [^3 H] spiperone (0.5 nM) and each test compound were allowed to undergo 2 hours of reaction at 27° C. in 50 mM Tris-HCl buffer (pH 7.4) containing 5 mM EDTA, 1.5 mM CaCl2, 5 mM KCl and 120 mM NaCl.
After completion of the reaction, the reaction solution was filtered by suction through a glass filter (GF/B), and radioactivity on the filter paper was measured using a liquid scintillation spectrometer.
The binding when the reaction was carried out in the presence of 10 μM haloperidol was defined as non-specific binding of [^3 H] spiperone, and the difference between total binding and non-specific binding was defined as specific binding. An inhibition curve was obtained by allowing a fixed concentration of [^3 H] spiperone to react with varied concentration of each compound to be tested under the aforementioned conditions, and the concentration of each test compound which inhibits 50% of the [^3 H] spiperone binding (IC50) was calculated from the inhibition curve, with the results shown in Table 3.

[5] = molecular target: Dopamine D2 receptor (Rattus norvegicus, UniProt P61169); experiment: Dopamine D2 receptor binding test ([3H] raclopride); settings: rat striate body membrane; [3H] raclopride 1 nM; 1 hour at 25° C.
Chain of Dopamine D2 receptor (P61169 whole entry): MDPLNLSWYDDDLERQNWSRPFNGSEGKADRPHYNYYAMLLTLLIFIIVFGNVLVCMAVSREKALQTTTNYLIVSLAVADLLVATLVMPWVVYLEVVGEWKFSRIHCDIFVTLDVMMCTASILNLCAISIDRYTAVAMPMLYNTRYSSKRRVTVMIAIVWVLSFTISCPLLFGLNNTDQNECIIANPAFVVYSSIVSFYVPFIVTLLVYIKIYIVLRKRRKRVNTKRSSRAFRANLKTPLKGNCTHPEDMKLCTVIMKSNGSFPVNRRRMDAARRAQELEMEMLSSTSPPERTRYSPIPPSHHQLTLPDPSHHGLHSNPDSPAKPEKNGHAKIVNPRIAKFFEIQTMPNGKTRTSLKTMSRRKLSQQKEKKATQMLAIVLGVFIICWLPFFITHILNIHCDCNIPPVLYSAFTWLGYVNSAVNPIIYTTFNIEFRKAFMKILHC

Compound	IC50 [4] [nM]	IC50 [5] [nM]	affinity for dopamine D4 receptor relative to dopamine D2 receptor [1]	efficacy in schizophrenia [2]	extrapyramidal disorders ([2]; unlike dopamine D2 receptor antagonists)	hemotoxicity [3]
CN1CCN(C2=Nc3cc(Cl)ccc3Nc3ccccc32)CC1 [Clozapine]			higher than its affinity for dopamine D2 receptor	effective in drug-resistant schizophrenia and negative symptoms	causes less extrapyramidal disorders	generates a hemotoxin as agranulocytosis which resulted in certain mortal cases
NC(=O)c1nc(-c2ccc(F)cc2)c(CCN2CCC(=Cc3ccc(F)cc3)CC2)s1 [Compound A-02]	5.46	≥ 1000				
CCOC(=O)c1nc(-c2ccc(F)cc2)c(CCN2CCC(=Cc3cccc(F)c3)CC2)s1 [Compound A-09, 2-ethoxycarbonyl-4-(4-fluorophenyl)-5-[2-[4-(3-fluorobenzylidene)piperidin-1-yl]ethyl]thiazole hydrochloride]	13.9	> 1000				
O=C(O)c1nc(-c2ccc(F)cc2)c(CCN2CCC(=Cc3cccc(F)c3)CC2)s1 [Compound A-11, 2-carboxylic acid-4-(4-fluorophenyl)-5-[2-[4-(3-fluorobenzylidene)piperidin-1-yl]ethyl]thiazole potassium salt]	10.5	≥ 1000				
Cc1ccc(C=C2CCN(CCc3sc(C(N)=O)nc3-c3ccc(F)cc3)CC2)cc1 [Compound A-15]	18.3	433				
NC(=O)c1nc(-c2ccccc2)c(CCN2CCC(=Cc3ccc(F)cc3)CC2)s1 [Compound A-17]	5.99	628				
Cc1ccc(-c2nc(C(N)=O)sc2CCN2CCC(=Cc3ccc(F)cc3)CC2)cc1 [Compound A-20]	9.55	187				

Second part, led by results:

IC50 [4] [nM]	IC50 [5] [nM]	Compound	affinity for dopamine D4 receptor relative to dopamine D2 receptor [1]	efficacy in schizophrenia [2]	extrapyramidal disorders ([2]; unlike dopamine D2 receptor antagonists)	hemotoxicity [3]
4.53	559	NC(=O)c1nc(-c2ccc(F)cc2)c(CCN2CCC(=Cc3cccc(F)c3)CC2)s1 [Compound A-10, 2-carbamoyl-4-(4-fluorophenyl)-5-[2-[4-(3-fluorobenzylidene)piperidin-1-yl]ethyl]thiazole]				
3.13	143	NC(=O)c1nc(-c2ccc(F)cc2)c(CCN2CCC(=Cc3ccccc3)CC2)s1 [Compound A-13]				
3.43	> 1000	CCOC(=O)c1nc(-c2ccc(F)cc2)c(CCN2CCC(C(=O)c3ccc(F)cc3)CC2)s1 [Compound A-21]				
3.13	72.2	NC(=O)c1nc(-c2ccc(F)cc2)c(CCN2CCC(C(=O)c3ccc(F)cc3)CC2)s1 [Compound A-22]				
